Results reported in ChEMBL document CHEMBL4251574, “Design, synthesis, and biological evaluation of new 1,2,3-triazolo-2'-deoxy-2'-fluoro- 4'-azido nucleoside derivatives as potent anti-HBV agents” (Eur J Med Chem, 2018).

Columns and labels:
Hepatitis B virus [1] = assay: Antiviral activity against Hepatitis B virus infected in human HepG2.2.15 cells assessed as inhibition of HBeAg secretion at 5 uM after 9 days by ELISA relative to control; format: functional; settings: HepG2.2.15, 216 h
Hepatitis B virus [2] = assay: Antiviral activity against Hepatitis B virus infected in human HepG2.2.15 cells assessed as inhibition of HBsAg secretion at 5 uM after 9 days by ELISA relative to control; format: functional; settings: HepG2.2.15, 216 h
HepG2 2.2.15 = assay: Cytotoxicity against human HepG2.2.15 cells after 9 days by MTT assay; format: functional; settings: HepG2 2.2.15, 216 h
[3] = test system: Human immunodeficiency virus 1; assay: Antiviral activity against HIV1 infected in human C8166 cells assessed as reduction in viral infection by measuring inhibition of syncytia formation incubated for 3 to 7 days by p24 detection based ELISA; format: functional, organism-based; settings: Human immunodeficiency virus 1, C8166

Row | Compound | inhibition at 5 µM (Hepatitis B virus [1]) [%] | inhibition at 5 µM (Hepatitis B virus [2]) [%] | CC50 (HepG2 2.2.15) [µM] | EC50 [3] [µM]
1 | CNC(=N)c1cn([C@@H]2O[C@@](CO)(N=[N+]=[N-])[C@@H](O)[C@@H]2F)nn1 | 13.8 | 22.2 | > 1000 | 
2 | [N-]=[N+]=N[C@]1(CO)O[C@@H](n2cc(-c3nnn[nH]3)nn2)[C@@H](F)[C@@H]1O | 20 | 40 | > 1000 | 
3 | [N-]=[N+]=N[C@]1(CO)O[C@@H](n2ccc(N)nc2=O)[C@@H](F)[C@@H]1O [RO-0622] |  |  |  | 0.0003
4 | [N-]=[N+]=N[C@]1(CO)O[C@@H](n2cc(C3CC3)nn2)[C@@H](F)[C@@H]1O | 26.2 | 28.9 | > 1000 | 
